Columns and labels:
Format in all cases: in vivo
[1] = test system: Aster Leafhopper [Macrosteles fascifrens (Stal)]; assay: Aster leafhopper on dipped oat seedlings (LH), 48 hours; conditions: percent in solution, adults/nymphs
Method in brief: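 Three ~10 cm oat seedlings per cup were dipped 2-3 seconds in 50-50 acetone-water compound solutions, dried, and caged with ten adult/nymph leafhoppers. Mortality was counted after 48 hours at concentrations from 0.05% downward. LC50, as percent compound in solution, came from dosage-mortality curves.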

[2] = test system: Tobacco Budworm [Heliothis virescens (Fabricius)] eggs; assay: Tobacco budworm eggs (TBW-E); conditions: percent in solution; 2-day old eggs
Method in brief: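 Mortality of dipped eggs served as read-out, recorded after untreated controls hatched and began feeding. Treatments used acetone solutions from 0.1% downward, with eggs incubated at 78° F; LC50 is expressed as percent of compound in the solution.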

[3] = test system: Beet Armyworm (Spodoptera exigua); assay: Beet armyworm leaf dip (BAW), 5 days; conditions: percent in solution; second-instar larvae; five days
Protocol: (§1) The compounds in Tables 1 and 2 above were tested for insecticidal activity using the following testing procedures. LC50 values, based on the results of these tests and calculated according to dosage-mortality curves, are expressed in Table 3.
Beet Armyworm (Spodoptera exigua):
Test compounds were diluted in a 50-50 acetone-water solution. Young leaves of sugar beets (Beta vulgaris) were immersed in the test solutions for 2-3 seconds and placed on a wire screen to dry. The dried leaves were placed in petri dishes containing a moistened filter paper and infested with five second-instar beet armyworm larvae. The dishes were placed in a high humidity chamber. Mortality of the larvae was recorded five days later. Test concentrations ranged from 0.1% downward. The LC-50 values are expressed below in Table 3 under the heading "BAW" in terms of percent of the test compound in solution.

[4] = test system: Tobacco Budworm [Heliothis virescens (Fabricius)] larvae; assay: Tobacco budworm larvae, contact (TBW-C), 5 days; conditions: percent in solution, second-instar larvae
Method in brief: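 Cotton cotyledons dipped 2–3 s in compound in 50-50 acetone-water, dried, then infested with 5 second-instar larvae and held 5 days at high humidity. Mortality scored; LC50 from dosage-mortality curves, expressed as percent compound in solution, concentrations from 0.1% downward.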

[5] = test system: Maize weevil [Sitophilus zeamais (Motschulsky)]; assay: Maize weevil on dipped corn seeds (MW), 48 hours; conditions: percent in solution, adult weevils
Method in brief: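 LC50, given as percent of compound in dipping solution, comes from dosage-mortality curves over concentrations descending from 0.01%. Four corn seeds soaked 2-3 s in 50:50 acetone:water solution were dried and held with 10 adult weevils, about 25° C, mortality read after 48 h.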

[6] = test system: Housefly [Musca domestica]; assay: Housefly contact mortality in dishes (HF), 48 hours; conditions: μg of test compound per 25 female flies
Method in brief: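 Acetone solutions (with 0.01% peanut oil) dried onto dish bottoms, then 25 female flies, 1-2 days old, caged over the residue with sugar water. Mortality scored at 48 hours; LC50 from dosage-mortality curves, in μg per 25 female flies, top level 100 μg.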

[7] = test system: Cabbage Looper [Trichoplusia ni (Hubner)]; assay: Cabbage looper leaf dip (CL), 3-5 days; conditions: percent in solution, second-instar larvae
Method in brief: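 Steps: dilute compound in 50-50 acetone-water from 0.1% downward; immerse cotyledon pieces 2-3 s and dry; place in humid petri dishes with five second-instar larvae; record mortality at 3-5 days. Dosage-mortality curves yield LC50 as percent in solution.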

[8] = test system: Black Bean Aphid [Aphis fabae (Scop.)]; assay: Black bean aphid spray test on nasturtium (BBA), 48 hours; conditions: percent of test compound in sprayed solution
Method in brief: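 LC50, given as percent test compound in the sprayed liquid, was calculated from dosage-mortality curves using concentrations from 0.05% downward. Sprays in 50:50 acetone-water went to runoff on ~5 cm nasturtiums carrying 25-50 aphids of mixed ages, one day after infestation. Deaths were counted 48 h later under greenhouse conditions.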

[9] = test system: Rice water weevil [Lissorhoptrus oryzophilus (Kuschel)]; assay: Rice water weevil topical (RWW), 48 hours; conditions: μg of test compound per weevil, female adults
Protocol: as §1
Rice water weevil [Lissorhoptrus oryzophilus (Kuschel)]:
Test compounds were diluted in acetone. Droplets (1 ul) of test solutions were applied to the ventral abdomens of ten female adult weevils. The treated weevils were placed in containers with wet cotton balls and rice foliage. The containers were covered and kept at a temperature of about 25° C. Mortality was recorded after 48 hours. Test concentrations ranged from […] down to that at which 50% mortality occurred. The LC50 values are expressed below in Table 3 under the heading "RWW" in terms of μg of test compound per weevil.

Compound	LC50 LH [1] [%]	LC50 TBW E (eggs) [2] [%]	LC50 BAW [3] [%]	LC50 TBW C (contact) [4] [%]	LC50 MW [5] [%]	LC50 HF [6] [µg]	LC50 CL [7] [%]	LC50 BBA [8] [%]	LC50 RWW [9] [µg]
CC(Cl)C(=Nc1ccc(Cl)cc1)OCc1cccc(Oc2ccccc2)c1 (stereo not shown) [Compound 33]	> 0.05	> 0.1	0.02	0.0025	> 0.01	17	0.01	0.003	
CC(=Nc1ccccc1)OCc1cccc(Oc2ccccc2)c1 [Compound 42]	> 0.05	> 0.1	> 0.1	> 0.1	> 0.01	45	> 0.1	> 0.05	
FC(F)(F)c1ccc(N=C(OCc2cccc(Oc3ccccc3)c2)C(Cl)Cl)cc1 [Compound 61]	> 0.05	0.03	0.002	0.03	> 0.01	29	0.001	0.001	
FC(F)(F)Oc1ccc(N=C(OCc2cccc(Oc3ccccc3)c2)C(Cl)Cl)cc1 [Compound 64]	> 0.05	0.03	0.0025	0.1	> 0.01	11	0.0025	0.0006	
CC(C)C(=Nc1cc(F)cc(C(F)(F)F)c1)OCc1cccc(Oc2ccccc2)c1 [Compound 77]	0.0002	0.03	0.004	0.0004	> 0.01	10	0.0005	0.001	
Fc1ccc(N=C(OCc2cccc(Oc3ccccc3)c2)C2CC2)cc1Cl [Compound 113]						15	0.005		> 2.5
CC(C)C(=Nc1ccc(C(C)C)cc1)OCc1cccc(Oc2ccccc2)c1 [Compound 144]	0.0006	0.05	> 0.01	0.006	> 0.01	100	0.002	0.003	
CC(C)C(=Nc1ccc2c(c1)OCO2)OCc1cccc(Oc2ccc(F)cc2)c1 [Compound 176]	> 0.05	0.05	0.0035	0.002	0.009	1.8	0.0005	0.0006	
CC(C)C(=Nc1ccc(F)c(Cl)c1)OCc1cc(Oc2ccc(F)cc2)ccc1F [Compound 230]		0.1			0.038	36	0.0004	0.01	> 2.5
CC(C)C(=Nc1ccc(F)c(Br)c1)OCc1cccc(Oc2ccccc2)c1 [Compound 254]		0.026				6	0.001	0.001	> 2.5
CC(C)C(=Nc1ccc(F)c(Cl)c1)OCc1cccc(Oc2ccc(F)cc2)c1F [Compound 262]		> 0.1			0.005	26	0.0004	0.03	> 2.5

— US5045566A, “Novel imidate insecticides” (ICI Americas Inc., priority 1989, dated 1991)
